Measurements published in ChEMBL document CHEMBL1154382, “Preliminary SAR analysis of novel antiproliferative N(6),5'-bis-ureidoadenosine derivatives” (2009).

Columns and labels:
Format in all cases: functional
Conditions in all cases: values are per cent of control
CCRF-CEM = assay: Antiproliferative activity against human CCRF-CEM cells at 10 uM assessed as cell growth inhibition relative to control
HL-60(TB) = assay: Antiproliferative activity against human HL-60(TB) cells at 10 uM assessed as cell growth inhibition relative to control
K562 = assay: Antiproliferative activity against human K562 cells at 10 uM assessed as cell growth inhibition relative to control
MOLT-4 = assay: Antiproliferative activity against human MOLT4 cells at 10 uM assessed as cell growth inhibition relative to control
[1] = Antiproliferative activity against human […] cells at 10 uM assessed as cell growth inhibition relative to control
A549 = assay: Antiproliferative activity against human A549 cells at 10 uM assessed as cell growth inhibition relative to control
EKVX = assay: Antiproliferative activity against human EKVX cells at 10 uM assessed as cell growth inhibition relative to control
PC-3 = assay: Antiproliferative activity against human PC3 cells at 10 uM assessed as cell growth inhibition relative to control
HOP-62 = assay: Antiproliferative activity against human HOP62 cells at 10 uM assessed as cell growth inhibition relative to control
HOP-92 = assay: Antiproliferative activity against human HOP92 cells at 10 uM assessed as cell growth inhibition relative to control
NCI-H226 = assay: Antiproliferative activity against human NCI-H226 cells at 10 uM assessed as cell growth inhibition relative to control
NCI-H23 = assay: Antiproliferative activity against human NCI-H23 cells at 10 uM assessed as cell growth inhibition relative to control
NCI-H322M = assay: Antiproliferative activity against human NCI-H322M cells at 10 uM assessed as cell growth inhibition relative to control
NCI-H460 = assay: Antiproliferative activity against human NCI-H460 cells at 10 uM assessed as cell growth inhibition relative to control
NCI-H522 = assay: Antiproliferative activity against human NCI-H522 cells at 10 uM assessed as cell growth inhibition relative to control
COLO 205 = assay: Antiproliferative activity against human COLO205 cells at 10 uM assessed as cell growth inhibition relative to control
HCC 2998 = assay: Antiproliferative activity against human HCC2998 cells at 10 uM assessed as cell growth inhibition relative to control
HCT-116 = assay: Antiproliferative activity against human HCT116 cells at 10 uM assessed as cell growth inhibition relative to control
HCT-15 = assay: Antiproliferative activity against human HCT15 cells at 10 uM assessed as cell growth inhibition relative to control
HT-29 = assay: Antiproliferative activity against human HT-29 cells at 10 uM assessed as cell growth inhibition relative to control
KM12 = assay: Antiproliferative activity against human KM12 cells at 10 uM assessed as cell growth inhibition relative to control
SW-620 = assay: Antiproliferative activity against human SW620 cells at 10 uM assessed as cell growth inhibition relative to control
LOX IMVI = assay: Antiproliferative activity against human LOXIMVI cells at 10 uM assessed as cell growth inhibition relative to control
Malme-3M = assay: Antiproliferative activity against human MALME-3M cells at 10 uM assessed as cell growth inhibition relative to control
M14 = assay: Antiproliferative activity against human M14 cells at 10 uM assessed as cell growth inhibition relative to control
SK-MEL-2 = assay: Antiproliferative activity against human SK-MEL-2 cells at 10 uM assessed as cell growth inhibition relative to control
SK-MEL-28 = assay: Antiproliferative activity against human SK-MEL-28 cells at 10 uM assessed as cell growth inhibition relative to control
SK-MEL-5 = assay: Antiproliferative activity against human SK-MEL-5 cells at 10 uM assessed as cell growth inhibition relative to control
UACC-257 = assay: Antiproliferative activity against human UACC257 cells at 10 uM assessed as cell growth inhibition relative to control
UACC-62 = assay: Antiproliferative activity against human UACC62 cells at 10 uM assessed as cell growth inhibition relative to control
SF-268 = assay: Antiproliferative activity against human SF268 cells at 10 uM assessed as cell growth inhibition relative to control
SF-295 = assay: Antiproliferative activity against human SF295 cells at 10 uM assessed as cell growth inhibition relative to control
SF-539 = assay: Antiproliferative activity against human SF539 cells at 10 uM assessed as cell growth inhibition relative to control
SNB-19 = assay: Antiproliferative activity against human SNB19 cells at 10 uM assessed as cell growth inhibition relative to control
SNB-75 = assay: Antiproliferative activity against human SNB75 cells at 10 uM assessed as cell growth inhibition relative to control
U-251 = assay: Antiproliferative activity against human U251 cells at 10 uM assessed as cell growth inhibition relative to control
IGROV-1 = assay: Antiproliferative activity against human IGROV1 cells at 10 uM assessed as cell growth inhibition relative to control
OVCAR-3 = assay: Antiproliferative activity against human OVCAR-3 cells at 10 uM assessed as cell growth inhibition relative to control
OVCAR-4 = assay: Antiproliferative activity against human OVCAR4 cells at 10 uM assessed as cell growth inhibition relative to control
OVCAR-5 = assay: Antiproliferative activity against human OVCAR5 cells at 10 uM assessed as cell growth inhibition relative to control
OVCAR-8 = assay: Antiproliferative activity against human OVCAR8 cells at 10 uM assessed as cell growth inhibition relative to control
SK-OV-3 = assay: Antiproliferative activity against human SKOV3 cells at 10 uM assessed as cell growth inhibition relative to control
786-0 = assay: Antiproliferative activity against human 786-0 cells at 10 uM assessed as cell growth inhibition relative to control
A498 = assay: Antiproliferative activity against human A498 cells at 10 uM assessed as cell growth inhibition relative to control
ACHN = assay: Antiproliferative activity against human ACHN cells at 10 uM assessed as cell growth inhibition relative to control
CAKI-1 = assay: Antiproliferative activity against human Caki1 cells at 10 uM assessed as cell growth inhibition relative to control
RXF 393 = assay: Antiproliferative activity against human RXF393 cells at 10 uM assessed as cell growth inhibition relative to control
SN12C = assay: Antiproliferative activity against human SN12C cells at 10 uM assessed as cell growth inhibition relative to control
TK-10 = assay: Antiproliferative activity against human TK10 cells at 10 uM assessed as cell growth inhibition relative to control
UO-31 = assay: Antiproliferative activity against human UO31 cells at 10 uM assessed as cell growth inhibition relative to control
BT-549 = assay: Antiproliferative activity against human BT549 cells at 10 uM assessed as cell growth inhibition relative to control
[2] = Antiproliferative activity against human Hs 578T cells at 10 uM assessed as cell growth inhibition relative to control
MCF7 = assay: Antiproliferative activity against human MCF7 cells at 10 uM assessed as cell growth inhibition relative to control
MDA-MB-231 = assay: Antiproliferative activity against human MDA-MB-231 cells at 10 uM assessed as cell growth inhibition relative to control
MDA-MB-468 = assay: Antiproliferative activity against human MDA-MB-468 cells at 10 uM assessed as cell growth inhibition relative to control
T47D = assay: Antiproliferative activity against human T47D cells at 10 uM assessed as cell growth inhibition relative to control
DU-145 = assay: Antiproliferative activity against human DU145 cells at 10 uM assessed as cell growth inhibition relative to control

SMILES: CCOC(=O)C[C@H]1[C@@H](O[Si](C)(C)C(C)(C)C)[C@H](n2cnc3c(N)ncnc32)O[C@@H]1COC(=O)NC
- growth, % of control at 10 µM (CCRF-CEM): 98%
- growth, % of control at 10 µM (HL-60(TB)): 80%
- growth, % of control at 10 µM (K562): 86%
- growth, % of control at 10 µM (MOLT-4): 55%
- growth, % of control at 10 µM [1]: 79%
- growth, % of control at 10 µM (A549): 92%
- growth, % of control at 10 µM (EKVX): 83%
- growth, % of control at 10 µM (PC-3): 84%
- growth, % of control at 10 µM (HOP-62): 74%
- growth, % of control at 10 µM (HOP-92): 95%
- growth, % of control at 10 µM (NCI-H226): 79%
- growth, % of control at 10 µM (NCI-H23): 105%
- growth, % of control at 10 µM (NCI-H322M): 99%
- growth, % of control at 10 µM (NCI-H460): 106%
- growth, % of control at 10 µM (NCI-H522): 75%
- growth, % of control at 10 µM (COLO 205): 104%
- growth, % of control at 10 µM (HCC 2998): 55%
- growth, % of control at 10 µM (HCT-116): 81%
- growth, % of control at 10 µM (HCT-15): 87%
- growth, % of control at 10 µM (HT-29): 100%
- growth, % of control at 10 µM (KM12): 102%
- growth, % of control at 10 µM (SW-620): 104%
- growth, % of control at 10 µM (LOX IMVI): 88%
- growth, % of control at 10 µM (Malme-3M): 96%
- growth, % of control at 10 µM (M14): 100%
- growth, % of control at 10 µM (SK-MEL-2): 111%
- growth, % of control at 10 µM (SK-MEL-28): 106%
- growth, % of control at 10 µM (SK-MEL-5): 68%
- growth, % of control at 10 µM (UACC-257): 94%
- growth, % of control at 10 µM (UACC-62): 77%
- growth, % of control at 10 µM (SF-268): 97%
- growth, % of control at 10 µM (SF-295): 92%
- growth, % of control at 10 µM (SF-539): 89%
- growth, % of control at 10 µM (SNB-19): 92%
- growth, % of control at 10 µM (SNB-75): 83%
- growth, % of control at 10 µM (U-251): 86%
- growth, % of control at 10 µM (IGROV-1): 118%
- growth, % of control at 10 µM (OVCAR-3): 98%
- growth, % of control at 10 µM (OVCAR-4): 78%
- growth, % of control at 10 µM (OVCAR-5): 115%
- growth, % of control at 10 µM (OVCAR-8): 98%
- growth, % of control at 10 µM (SK-OV-3): 94%
- growth, % of control at 10 µM (786-0): 87%
- growth, % of control at 10 µM (A498): 98%
- growth, % of control at 10 µM (ACHN): 89%
- growth, % of control at 10 µM (CAKI-1): 79%
- growth, % of control at 10 µM (RXF 393): 78%
- growth, % of control at 10 µM (SN12C): 96%
- growth, % of control at 10 µM (TK-10): 110%
- growth, % of control at 10 µM (UO-31): 95%
- growth, % of control at 10 µM (BT-549): 74%
- growth, % of control at 10 µM [2]: 93%
- growth, % of control at 10 µM (MCF7): 98%
- growth, % of control at 10 µM (MDA-MB-231): 85%
- growth, % of control at 10 µM (MDA-MB-468): 77%
- growth, % of control at 10 µM (T47D): 84%
- growth, % of control at 10 µM (DU-145): 100%
